Tests used:
feline calicivirus (FCV) = test: Photodynamic inactivation of FCV in water with photosensitizer and light; conditions: for efficacy against FCV: photodynamic treatment, under the conditions tested (10, 25, 50 μM PS; light exposure); for log reduction in FCV: 3 minute exposure
Experimental: (§1) The inactivation of HuNoV surrogates (e.g., feline calicivirus (FCV) and Tulane virus (TuV)) was studied, by exposure to light in the presence of photosensitizer dyes in water, FCV and TuV were mixed with different concentrations (10, 25, and 50 μM) of three different PS (Rose Bengal (RB), Phloxine B (Ph-B) and chlorophyllin) and then exposed to light for a period of time, e.g., 1, 3, 5, or 10 minutes. While not being limited to a mode of action, capsid integrity and/or genome integrity may be impacted by the exposure of viruses to light in the presence of the PS.
(§2) Shellfish and fresh produce are the most frequent foods implicated in human norovirus (HuNoV) outbreaks in the US. Decontamination of virus-contaminated waters used in depuration of oysters, clams or mussels, and in post-harvest washing of fresh produce, is a mitigation strategy for this human biothreat risk. […] Although the PDT has been studied extensively for bacterial inactivation, studies on its use for viral inactivation in food and water are scarce. Inactivation of >4 log TCID50 of two HuNoV surrogates (feline calicivirus (FCV) and Tulane virus (TuV)) in water was observed upon exposure to LED-blue light for 3 to 10 min using Rose Bengal (RB) or Phloxine-B (Ph-B) as photosensitizers. The virucidal effect of PDT may depend on the type of treated virus, the light source, the type and concentration of the photosensitizer (PS), and the operational parameters such as the distance between the light source and treated object and/or exposure time.

Tulane virus (TuV) = test: Photodynamic inactivation of TuV in water with photosensitizer and light; conditions: for efficacy against TuV: photodynamic treatment, under the conditions tested (10, 25, 50 μM PS; light exposure)
Experimental: as §1, §2

[1] = test system: Gram positive or Gram negative bacterial suspension, e.g., E. coli, Salmonella enterica, Staphylococcus aureus, or Bacillus subtilis; test: Decontamination of lettuce leaves and stainless-steel discs spiked with bacteria, blue LED light, agar plate count; conditions: 50 μM Phloxin-B, 1 cm distance, blue LED 1, 3, 5, and 10 minutes; lettuce leaf or stainless-steel surface
Experimental: Romaine lettuce leaves are cut into small squares (2×2 cm) and then are disinfected using 300 ppm sodium hypochlorite followed by rinsing three times with sterilized distilled water. Sterile stainless-steel discs are also used as a model for surface decontamination. Each sample is spiked with 50 μL of a Gram positive or Gram negative bacterial suspension, e.g., E. coli, Salmonella enterica, Staphylococcus aureus, or Bacillus subtilis, then dried for 30 minutes. 100 μL of a 50 μM Phloxin-B solution is then added to each spiked leaf or stainless-steel surface. The samples are exposed at a 1 cm distance to the blue LED light source for 1, 3, 5, and 10 minutes. After each exposure time any surviving bacterial cells are recovered in 500 μL of recovery buffer followed by vortexing for 0.5 to 1 minute. The surviving bacterial cells are enumerated using Agar plate count technique. A ≥3 log reduction in the bacterial cell counts is observed.

TuV = test: Virus added to light-preexposed Ph-B solution, cell culture titration; design: species or system Tulane virus; conditions: 50 μM Phloxin-B pre-exposed to blue LED light 1-10 min; 1 to 5 min contact
Experimental: (§3) Several 50 μM stocks of Phloxin-B solution are prepared (500 μL each). Each stock is pre-exposed to the blue LED light for specific times (e.g., 1, 2, 3, 5, and 10 min). Immediately after light exposure, 50 μL of the tested virus (FCV, TuV, and TGEV) is added to the light-preexposed Ph-B solution for about 1 to 5 min contact times before titrating the surviving virus using a cell culture assay. A >3 log reduction in the virus titer is observed.

FCV = test: as above; design: species or system feline calicivirus; conditions: 50 μM Phloxin-B pre-exposed to blue LED light 1-10 min; 1 to 5 min contact
Experimental: as §3

TGEV = test: as above; design: species or system transmissible gastroenteritis virus; conditions: 50 μM Phloxin-B pre-exposed to blue LED light 1-10 min; 1 to 5 min contact
Experimental: as §3

Row | Compound | efficacy against FCV (feline calicivirus (FCV)) | log reduction in TuV (Tulane virus (TuV); 10 minute exposure, 50 μM RB) [log] | efficacy against TuV (Tulane virus (TuV)) | log reduction in FCV (feline calicivirus (FCV); 25 μM RB) [log] | log reduction in the bacterial cell counts [1] [log] | log reduction in the virus titer (TuV) (TuV) [log] | log reduction in TuV (Tulane virus (TuV); 5 minute exposure, 50 μM Ph-B) [log] | log reduction in the virus titer (FCV) (FCV) [log] | log reduction in FCV (feline calicivirus (FCV); 50 μM Ph-B) [log] | log reduction in the virus titer (TGEV) (TGEV) [log]
1 | chlorophyllin | low efficacy | – | – | – | – | – | – | – | – | –
2 | O=C1OC2(c3cc(I)c(O)c(I)c3Oc3c2cc(I)c(O)c3I)c2c(Cl)c(Cl)c(Cl)c(Cl)c21 [RB, Rose Bengal] | high efficacy | 4 | high efficacy | 4 | – | – | – | – | – | –
3 | O=C([O-])c1c(Cl)c(Cl)c(Cl)c(Cl)c1-c1c2cc(Br)c(=O)c(Br)c-2oc2c(Br)c([O-])c(Br)cc12.[Na+].[Na+] [Ph-B, Phloxine B] | high efficacy | – | high efficacy | – | ≥ 3 | > 3 | 4 | > 3 | 4 | > 3
